Measured values from US8642766B2, “Synthesis of (+) cortistatin A and related compounds” (priority 2008, dated 2014).

Columns and labels:
HUVECs = assay: Assay to determine activity against HUVECs (carried out by Pfizer, Inc.); assay type: cell-based, human; settings: for IC50: synthetic material, tested by Pfizer, Inc.
Source text: [Aoki et al., J. Am. Chem. Soc. 2006, 128:3148-3149]

[1] = tested on: human umbilical vein endothelial cells (HUVECs); settings: cited from earlier work

| SMILES | IC50 (HUVECs) | IC50 ([1]; natural cortistatin A tested by Kobayashi group, Aoki et al., J. Am. Chem. Soc. 2006, read-out: IC50 against HUVECs, natural cortistatin A) | IC50 (testing cells)/IC50 (HUVECs) ([1]; selectivity versus healthy or cancerous cell lines, Aoki et al. 2006) | IC50 (HUVECs; Homo sapiens, HUVEC) | biological activity compared with (+)cortistatin A (HUVECs; statement in words, refers to the HUVEC results discussed below it) |
| --- | --- | --- | --- | --- | --- |
| CN(C)[C@H]1C[C@@]23CC[C@@]4(O2)C(=CC[C@]2(C)[C@@H](c5ccc6ccncc6c5)CC[C@H]24)C=C3[C@@H](O)[C@@H]1O [17-epi-cortistatin A] | > 1000 nM |  |  |  |  |
| CN(C)[C@H]1C[C@@]23CC[C@@]4(O2)C(=CC[C@]2(C)[C@@H](c5ccc6ccncc6c5)CC[C@H]24)C=C3[C@@H](O)[C@@H]1O [cortistatin A, (+)-cortistatin A] |  | 1.8 nM | ≥ 3300 | 2.43 nM |  |
| CN(C)[C@H]1C[C@@]23CC[C@@]4(O2)C(=CC[C@]2(C)C(c5ccc6ccncc6c5)=CC[C@H]24)C=C3[C@@H](O)[C@@H]1O [Δ^16-cortistatin A] |  |  |  | 3.88 nM | substantially the same as that of (+)cortistatin A |
